# Legend:
# [1] = system: panel of 60 cancer cell lines; assay: NCI DTP one-dose primary anticancer assay (10^-5 M, SRB)
# [2] = system: MCF-7 breast cancer cells; assay: Annexin V-FITC/PI binding assay (flow cytometry); conditions: MCF-7, 5 µM, 24 h; control 4.4 ± 0.6%
# PC-3 (Prostate Cancer) = assay: NCI five-dose SRB assay; assay type: cell-based; conditions: Homo sapiens, 48 h
# KB3-1 cells = assay: Fluorescent microscopy of morphological changes (Hoechst 33342/PI); assay type: cell-based, human; conditions: KB3-1, 5 µM, 48 h
# Description: In addition, we observed multinucleated giant cells. […] The condensed chromatin, a characteristic feature of apoptosis, and dead cells were observed under the action of all studied compounds.
# KB3-1 cells were seeded in the 12-well plates (CytoONE, STARLAB International GmbH, Hamburg, Germany) on glass microscopic slides and incubated overnight. Studied compounds were added to cells in the following concentrations: the compounds 3, 4 and cisplatin—5 µM/mL, doxorubicin—1 µM/mL. Cells were incubated for the next 48 h. Chromatin material of living and apoptotic cells was stained with the DNA-specific fluorescent dye Hoechst 33342 (Sigma-Aldrich, Burlington, MA, USA) and the DNA/RNA-specific fluorescent dye Propidium iodide (PI, Sigma, Burlington, MA, USA). Fluorochromes were added to cultured cells at final concentrations 0.2–0.5 μg/mL for Hoechst 33342 and 0.1 μg/mL—for PI. Images were made with a fluorescent Zeiss microscope (Carl Zeiss, Oberkochen, Germany). Magnification ×400. Microphotographs were additionally analyzed using ImagePro7N software.
# OVCAR-5 (Ovarian Cancer) = assay: NCI five-dose SRB assay; assay type: cell-based; conditions: Homo sapiens, 48 h
# RPMI-8226 (Leukemia) = assay: NCI five-dose SRB assay; assay type: cell-based; conditions: Homo sapiens, 48 h
# 786-0 (Renal Cancer) = assay: NCI five-dose SRB assay; assay type: cell-based; conditions: Homo sapiens, 48 h
# OVCAR-3 (Ovarian Cancer) = assay: NCI five-dose SRB assay; assay type: cell-based; conditions: Homo sapiens, 48 h
# SNB-75 (CNS Cancer) = assay: NCI five-dose SRB assay; assay type: cell-based; conditions: Homo sapiens, 48 h
# [3] = system: HOP-62 (Non-Small Cell Lung Cancer); assay: NCI five-dose SRB assay; assay type: cell-based; conditions: Homo sapiens, 48 h
# CAKI-1 (Renal Cancer) = assay: NCI five-dose SRB assay; assay type: cell-based; conditions: Homo sapiens, 48 h
# [4] = system: MDA-MB-231/ATCC (Breast Cancer); assay: NCI five-dose SRB assay; assay type: cell-based; conditions: Homo sapiens, 48 h
# BT-549 (Breast Cancer) = assay: NCI five-dose SRB assay; assay type: cell-based; conditions: Homo sapiens, 48 h
# SK-MEL-28 (Melanoma) = assay: NCI five-dose SRB assay; assay type: cell-based; conditions: Homo sapiens, 48 h
# [5] = system: Non-Small Cell Lung Cancer cell lines (MG_MID); assay: NCI five-dose SRB assay; assay type: cell-based; conditions: Homo sapiens, 48 h
# [6] = system: NCI-H460 (Non-Small Cell Lung Cancer); assay: NCI one-dose SRB assay; conditions: 10 μM, 48 h
# Description: Tested compounds were added to the culture at a single concentration (10^−5 M) and the cultures were incubated for 48 h. End point determinations were made with a protein binding dye, Sulphorhodamine B (SRB). […] The percentage growth was evaluated spectrophotometrically versus controls not treated with test agents.
# [7] = system: panel of cancer cell lines; assay: MTT assay, summary over the tumor cell lines; conditions: Homo sapiens, 72 h, read-out: IC50 toward tumor cells (depending on tumor cell line)
# ACHN (Renal Cancer) = assay: NCI five-dose SRB assay; assay type: cell-based; conditions: Homo sapiens, 48 h
# HT29 (Colon Cancer) = assay: NCI five-dose SRB assay; assay type: cell-based; conditions: Homo sapiens, HT-29, 48 h
# UACC-257 (Melanoma) = assay: NCI five-dose SRB assay; assay type: cell-based; conditions: Homo sapiens, 48 h
# [8] = system: NCI/ADR-RES (Ovarian Cancer); assay: NCI five-dose SRB assay; assay type: cell-based; conditions: Homo sapiens, 48 h
# MOLT-4 (Leukemia) = assay: NCI five-dose SRB assay; assay type: cell-based; conditions: Homo sapiens, 48 h
# KB3-1 (cervix) = assay: MTT assay of cell viability; conditions: Homo sapiens, KB 3-1, 72 h, KB3-1; 72 h of incubation, M ± SD
# SF-539 (CNS Cancer) = assay: NCI five-dose SRB assay; assay type: cell-based; conditions: Homo sapiens, 48 h
# SK-OV-3 (ovarian) = assay: MTT assay of cell viability; conditions: Homo sapiens, SK-OV-3, 72 h
# [9] = system: NCI-H23 (Non-Small Cell Lung Cancer); assay: NCI five-dose SRB assay; assay type: cell-based; conditions: Homo sapiens, 48 h
# UACC-62 (Melanoma) = assay: NCI five-dose SRB assay; assay type: cell-based; conditions: Homo sapiens, 48 h
# KM12 (Colon Cancer) = assay: NCI one-dose SRB assay; conditions: 10 μM, 48 h
# Description: A primary anticancer assay was performed on a panel of approximately sixty human tumor cell lines derived from nine neoplastic diseases, in accordance with the protocol of the Drug Evaluation Branch, National Cancer Institute, Bethesda [31, 32, 33, 34, 35]. Tested compounds were added to the culture at a single concentration (10^−5 M) and the cultures were incubated for 48 h. End point determinations were made with a protein binding dye, Sulphorhodamine B (SRB). […] The percentage growth was evaluated spectrophotometrically versus controls not treated with test agents.
# SK-OV-3 (Ovarian Cancer) = assay: NCI five-dose SRB assay; assay type: cell-based; conditions: Homo sapiens, 48 h
# [10] = system: human embryonic kidney HEK293 cells; assay: MTT assay of cell viability; conditions: HEK293, 72 h
# IGROV-1 (Ovarian Cancer) = assay: NCI five-dose SRB assay; assay type: cell-based; conditions: Homo sapiens, 48 h
# UO-31 (Renal Cancer) = assay: NCI five-dose SRB assay; assay type: cell-based; conditions: Homo sapiens, 48 h
# U251 (CNS Cancer) = assay: NCI five-dose SRB assay; assay type: cell-based; conditions: Homo sapiens, U-251, 48 h
# SW-629 (Colon Cancer) = assay: NCI five-dose SRB assay; assay type: cell-based; conditions: Homo sapiens, 48 h
# SN12C (Renal Cancer) = assay: NCI five-dose SRB assay; assay type: cell-based; conditions: Homo sapiens, 48 h
compound,measurement,setting,value
"CCOC(=O)c1ccc(NC(=O)CSC(CC(=O)c2sc(Nc3ccccn3)nc2C)c2ccccc2F)cc1 (stereo not drawn) [Compound 4, Ethyl 4-[[2-[1-(2-Fluorophenyl)-3-[4-methyl-2-(2-pyridylamino)thiazol-5-yl]-3-oxopropyl]sulfanylacetyl]amino]benzoate]","Mean Growth, %","[1]; 10 μM, 48 h, 60 cell lines",−2.78%
same,"Range of Growth, %","[1]; 10 μM, 48 h, 60 cell lines",−76.78–41.12%
same,Positive Cytostatic Effect,"[1]; 10 μM, number of cell lines with percent growth from 0 to 50 / total number of cell lines",35/60
same,Positive Cytotoxic Effect,"[1]; 10 μM, number of cell lines with percent growth of <0 / total number of cell lines",25/60
same,inhibition at 10 µM,"[1]; Homo sapiens, 48 h, read-out: growth inhibition of all 60 tested cancer cell lines",> 50%
same,apoptotic cells (sum of early and late apoptotic cells),[2],42.7 ± 7.0%
same,GI50,PC-3 (Prostate Cancer),23.8 µM
same,morphological changes,KB3-1 cells,"changes in nuclear morphology, similar to a mitotic catastrophe"
same,GI50,OVCAR-5 (Ovarian Cancer),74.4 µM
same,GI50,RPMI-8226 (Leukemia),8.29 µM
same,GI50,786-0 (Renal Cancer),24.8 µM
same,GI50,OVCAR-3 (Ovarian Cancer),31.7 µM
same,GI50,SNB-75 (CNS Cancer),3.58 µM
same,GI50,[3],37.5 µM
same,GI50,CAKI-1 (Renal Cancer),11.5 µM
same,GI50,[4],19.3 µM
same,GI50,BT-549 (Breast Cancer),14.7 µM
same,GI50,SK-MEL-28 (Melanoma),38.7 µM
same,GI50,[5],27.6 µM
same,Growth %,[6],−40.69%
same,IC50,[7],0.57 to 7.8 µM
same,GI50,ACHN (Renal Cancer),45.6 µM
same,GI50,HT29 (Colon Cancer),58.3 µM
same,GI50,UACC-257 (Melanoma),38.4 µM
same,GI50,[8],24.1 µM
same,GI50,MOLT-4 (Leukemia),32.2 µM
same,IC50,KB3-1 (cervix),7.63 ± 0.38 µM
same,GI50,SF-539 (CNS Cancer),32.5 µM
same,IC50,SK-OV-3 (ovarian),7.87 ± 0.23 µM
same,GI50,[9],22.7 µM
same,GI50,UACC-62 (Melanoma),16.1 µM
same,Growth %,KM12 (Colon Cancer),−59.82%
same,GI50,SK-OV-3 (Ovarian Cancer),26 µM
same,IC50,[10],> 50 µM
same,GI50,IGROV-1 (Ovarian Cancer),12.1 µM
same,GI50,UO-31 (Renal Cancer),3.19 µM
same,GI50,U251 (CNS Cancer),47.8 µM
same,GI50,SW-629 (Colon Cancer),75.3 µM
same,GI50,SN12C (Renal Cancer),28 µM

# Reference: paper PMC9570594, “Development of Novel Pyridine-Thiazole Hybrid Molecules as Potential Anticancer Agents” (Molecules, 2022)
